Experimental findings from a melting point compilation (Tetko et al.; mined from patent text by program, amines drawn as free bases though some values may be those of a salt) are described below.

The compound `CCNC(=O)CCCC=CCC1C(O)CC(O)C1C=CC(O)CCc1ccccc1` (stereo not drawn) yielded a melting point of 64 to 66 °C.
`N#Cc1cnc2cnc(F)cc2c1Nc1cccc(Br)c1` registered a melting point of 185 to 195 °C.
The result for `CC(C)c1nn(-c2ccc(C#N)nn2)cc1CCCO` reads 140 to 141 °C; that for `O=C(O)CCCC(=O)c1cccc([N+](=O)[O-])c1`, 135 to 137 °C.
The result for `COc1ccc(N(CCCC(=O)N(CCCC(=O)O)c2c(C)cccc2C)C(=O)c2ccc(Cl)cc2)cc1` reads 131 to 133 °C; that for `CN(C)C(=O)C1=Cc2cccc(OC[C@@H]3CO3)c2OC1`, 115 to 117 °C.
The result for `Cc1ccc(-n2nc(Sc3ccc(Cl)cc3)c(C)c(C#N)c2=O)cc1` reads 190 to 192 °C; that for `FC(F)(F)CNC(=S)NCc1ccc(C(F)(F)F)cc1`, 80 to 82 °C; that for `Cn1c(C(F)(F)F)cc(=O)n(-c2ccc3snc(COCC(=O)O)c3c2)c1=O`, 191 to 192 °C.
With `COc1ncc(-c2ccncc2)cc1Br`, the melting point lay within 136 to 138 °C.
`CN(C)c1nnc(-c2ccc3occ(-c4cccc(OC(F)(F)F)c4)c3c2)o1` came in with a melting point of 105 to 106 °C.
For `CN(C)c1cccc(/C=C/c2c(F)cccc2F)c1`, the melting point fell in the range of 69 to 71 °C.
The result for `O=C1CC(Br)(CC(Br)(Br)Br)O1` (stereo not drawn) reads 71 to 73 °C; that for `COC(=O)C1=NC2=COc3ccc(C)cc3N2C1C(=O)O` (stereo not drawn), 178 to 179 °C; that for `COC(=O)[C@H](Cc1c[nH]cn1)NC(=O)[C@H](CCC(N)=O)NC(=O)OCc1ccccc1`, 186 to 188 °C.
As for `CCN(CC)C(=O)COc1ccccc1C(O)(CC)c1cccc(Cl)c1` (stereo not drawn), the figure is 93 to 94 °C; as for `N#Cc1cccc(C2OCCO2)n1`, 64 °C; as for `CCC(=O)NC1CCc2c(ccc(OC)c2N)C1` (stereo not drawn), 141 °C.
The result for `O=C(O)c1ccc(C(=O)Nc2cc3c4c(c2)CCCC4CCC3)cc1` reads 283 to 284 °C; that for `CCOC(=O)CNC(=O)COc1c(F)cc(CSCCNS(=O)(=O)c2ccc(Cl)cc2)cc1F`, 88.5 to 89.5 °C.
As for `CC(=O)c1[nH]c2cc(Cl)cc(Cl)c2c1C`, the melting point amounted to 178 °C.
The result for `CC[C@H](C)[C@H](NC(=O)OCc1ccccn1)C(=O)NC(Cc1ccccc1)C(O)C(O)C(Cc1ccccc1)NC(=O)[C@@H](NC(=O)OCc1ccccn1)[C@@H](C)CC` (stereo partly drawn) reads 220 to 221 °C; that for `Cc1c(NC(=O)c2ccc(-c3ccc(Cl)cc3Cl)cc2F)ccc2cc(CN3CCCC3)cnc12`, 162 to 163 °C.
With `Cc1cc(C)n2nc(C)cc2n1`, the melting point was 70 to 73 °C.
The result for `COc1ccc(CC2=NC(C)(C)CO2)cc1[N+](=O)[O-]` reads 88 to 90 °C; that for `CCc1noc(-c2cn(-c3ccccc3OCc3ccccc3)cn2)n1`, 106 °C; that for `CC(C)(Oc1ccc(OCc2noc(-c3ccc(C(C)(C)C)cc3)n2)cc1)C(=O)O`, 143 °C.
The result for `C=CCCN(CCC=C)Cc1noc(-c2ncn3c2[C@@H]2CCN2C(=O)c2ccccc2-3)n1` reads 80 to 87 °C; that for `CCOC(=O)CC=NCC(O)COc1ccccc1C#N` (stereo not drawn), 120 °C.
As for `COc1ccc(C2=NNC(=O)CC2)cc1Cl`, the figure is 194 to 195 °C; as for `Cc1cccc2c1C(=O)N1CC[C@H]1c1c(C(=O)OC(C)(C)C)ncn1-2`, 191 to 192 °C; as for `c1ccc2c(c1)Cn1cnnc1CN2`, 232 to 237 °C.
`COC(=O)c1c(C)[nH]c(-c2ncncc2Cl)c1C(=O)OC` registered a melting point of 180 to 181 °C.
The result for `CC1(C)Nc2ccc(C#N)cc2C(NC(=NC#N)Nc2ccccc2)C1O` (stereo not drawn) reads 218 to 219 °C; that for `CC(=O)OC1CC(=O)C2(C)CCC3C(CCC4CC(=O)CC(C)(O)C43C)C12` (stereo not drawn), 170 °C; that for `Cc1cccc(-c2n[nH]cc2-c2ccc(F)c(-c3ccc(O)cc3)c2)n1`, 72 to 74 °C.
The result for `CCCC(=O)Nc1cc(/C=C/C(=O)OC)n(C)c1` reads 109 to 110 °C; that for `Cc1cc(C)c(N(C)C(=O)CN2C(=O)c3ccccc3C2=O)c(C)c1CO`, 254 to 256 °C; that for `CC(C)(C)C=C[C@H](O)c1ccc(F)cc1`, 38 to 40 °C.
As for `COCCOCCn1cc(C(=O)NCc2ccc(Cl)cc2)c(=O)c2cc(CO)ccc21`, the figure is 161 to 162 °C; as for `CC(Cc1c[nH]c2ccccc12)(NC(=O)OC1C2CC3CC(C2)CC1C3)C(=O)NCCc1cnccn1` (stereo not drawn), 97 to 101 °C; as for `COc1cc(OC)c(C(=O)O)c(C(F)(F)F)n1`, 194 to 198 °C.
In turn, `SC1=NCCN1Cc1ccccc1` gave a melting point of 177 to 182 °C.
As for `CC1(C)OC(=O)Nc2ccc(-c3cc(Cl)cc(C#N)c3)cc21`, the figure is 256 to 257 °C.
As for `COc1cc(OC)cc(-c2ncoc2-c2ccc(OC)c(N)c2O)c1`, the figure is 152 to 154 °C; as for `COc1ccc(C(=O)CCC2CCCCC2)c(OC)c1`, 34 to 35 °C.
The result for `CC1CC(=O)NN=C1c1ccc(-n2ccc(CN(C)C)c2)cc1` (stereo not drawn) reads 167 to 168 °C.
The compound `CS(=O)(=O)Oc1ccccc1C(=O)O` registered a melting point of 125 to 126 °C.
As for `C/C(=C\C(=O)O)c1cnn(C)c1-c1ccc(F)cc1`, the figure is 123 to 124 °C; as for `CC(C)(C)OC(=O)CN(C(=O)CNC(=O)Nc1ccc(Cl)cc1)c1ccccc1C(=O)c1ccccc1`, 196 to 197 °C.
As for `C[Si](C)(C)C#CC1(O)CCCCC1`, the figure is 72 to 73 °C; as for `Cc1ccc2oc(Br)c(-c3ccccc3)c2c1`, 52 to 57 °C.
The result for `CCOC(=O)/C=C/c1ccc(C(C)(C)C)c([N+](=O)[O-])c1` reads 77 to 78 °C; that for `OCc1c(CO)c(-c2ccc(Cl)cc2)n2c1Cc1ccccc1C2`, 170 to 171 °C.
`NS(=O)(=O)c1cc(C(=O)O)cc([N+](=O)[O-])c1OCC(F)(F)F` registered a melting point of 195 to 197 °C.
As for `CC(CSC(=O)c1ccccc1)C(=O)N1Cc2ccccc2CC1C(=O)O` (stereo not drawn), the figure is 154 to 155 °C; as for `N#Cc1ccc(-c2ccc(C(=O)O)s2)cc1`, more than 300 °C; as for `CCOC(=O)C1=C(C)N=C(OC)N(C(=O)OCC)C1c1cccc([N+](=O)[O-])c1` (stereo not drawn), 61.5 to 64.5 °C.
As for `COc1ccc(C(Cl)C(C)(C)[N+](=O)[O-])cc1` (stereo not drawn), the figure is 40 to 41 °C; as for `COc1cncnc1N1CCN(CCCc2c[nH]c3ccc(CNS(C)(=O)=O)cc23)CC1C` (stereo not drawn), 210 to 214 °C; as for `CC1=NNC(=O)c2cccc3[nH]cc1c23`, 335 to 336 °C.
`CC(C)c1ccc2c(c1)c(Sc1ccccc1)c(CC(C)(C)C(=O)O)n2Cc1ccc(Cl)cc1`: the melting point is 162 to 165 °C.
As for `CCCCc1ccc(-c2ccc(CCc3ccc(C(F)(F)F)cc3)cc2)cc1`, the figure is 85 °C; as for `Nc1ccc(-c2noc(-c3cnn4c(C(F)F)cc(-c5ccc(Cl)cc5)nc34)n2)cn1`, 254 °C; as for `O=C(O)CSCC(O)CN1CCCCC1` (stereo not drawn), 152 °C.
As for `COc1ccc(-c2cc(=Nc3c(C)cc(C)cc3C)n(C)c(NN)n2)cc1OC`, the figure is more than 300 °C.
The result for `CCOC(=O)[C@H]1O[C@@H]1[C@H](Cc1ccccc1)NC(=O)OC(C)(C)C` reads 55 to 61 °C.
Turning to `Cc1nc2c(Cl)cnn2c(Cl)c1CCCl`, the melting point was in the range of 115 to 117 °C.
As for `CC(C#N)(Cn1nnc2cc(Cl)ccc21)NC(=O)c1ccc(OC(F)(F)F)cc1` (stereo not drawn), the figure is 135 °C; as for `CCCCCCCCCCCCCCc1ccc(C(=O)CCCCC)c(O)c1`, 44 to 45 °C; as for `N#CC(Cl)Cc1ccc(C(=O)O)cc1` (stereo not drawn), 157 °C.
As for `COC(=O)C(NS(=O)(=O)c1ccc(-c2ccc(NC(=O)c3cc4cc(OC)ccc4o3)cc2)cc1)C(C)C` (stereo not drawn), the figure is 234 to 235 °C; as for `Cc1cc(-c2ccco2)ccc1C(=O)CC(=O)C(F)(F)F`, 135 to 137 °C; as for `Nc1cccc(Nc2ncnc3[nH]cc(C(=O)c4ccccc4)c23)n1`, more than 300 °C.
Consider `N#Cc1ncnc2[nH]ccc12`, for which the melting point lay in the range of 237 to 238 °C.
The result for `COc1ccc(C(=O)Nc2cc(NC(=O)c3cccc(OCC(=O)O)c3)ccc2C)cc1OC` reads 206 to 207 °C.
The result for `Cc1[nH]c2ccccc2c1CN1CCC(c2c(Cl)cccc2Cl)CC1` reads 168 to 170 °C; that for `CCOC(=O)C(C)c1ccc2cc(O)ccc2c1` (stereo not drawn), 93 to 98 °C.
The result for `CCOc1ccc2c(=O)cc(-c3ccccc3)oc2c1` reads 138 to 139 °C; that for `O=c1[nH]ncc2cc(Br)ccc12`, 280 to 283 °C.
Turning to `C/C(=C/c1ccc(C(=O)O)cc1)c1cc2c(cc1C)CCC(C)(C)CC2`, the melting point was 223 to 225 °C.
The result for `Cc1nn(-c2ccc(Cl)cc2)cc1C(=O)N(CC(=O)O)c1ccc(OCC(C)(C)C)c(C#N)c1` reads 186 to 189 °C; that for `CN(C)CCCCCCCOc1ccc(-c2nnc(CSCCOc3ccccc3)o2)cc1`, 39 to 40 °C; that for `CCOP(=O)(/C=C/c1cn(-c2ccccc2)nc1OCc1ccc(OCc2nc(-c3ccc(C(=O)O)s3)oc2C)c(OC)c1)OCC`, 165 to 166 °C.
The result for `COc1cc(Cl)c(NN)c(Cl)c1` reads 124 to 125 °C; that for `Nc1c(Cl)c(C(=O)O)nc(Cl)c1C(F)(F)F`, 173 °C; that for `Cc1cc(Oc2ncc(C(F)(F)F)cc2Cl)nn1C(=O)Nc1ccccc1`, 116 to 118 °C.
The result for `CCOCC1N=NC(=S)N1C` (stereo not drawn) reads 137 to 138 °C; that for `Cc1cc2c(Cl)cc(F)c(-n3c(=O)cc(C(F)(F)F)n(C)c3=O)c2o1`, 196 to 197 °C; that for `CC(=O)OCc1nnc(N)s1`, 191 to 192 °C.
In the case of `CCC1(OC)CCc2c(C)c(O)c(C)c(C)c2O1` (stereo not drawn), the melting point lay in the range of 96.5 to 98.5 °C.
As for `O=C(Cc1ccc2ccccc2n1)NC1CCC2(O)C3Cc4ccc(O)c5c4C2(CCN3CC2CC2)C1O5` (stereo not drawn), the figure is 212 to 214 °C.
As for `CCC1COC(c2ccc(C#N)c(F)c2)OC1` (stereo not drawn), the figure is 49 °C.

By melting point is commonly meant the temperature of the solid-liquid transition.
